This data set is described as follows: Solubility of AXT in water. In kind it is physicochemical.

As for `CNC(=O)c1ccccc1Sc1ccc2c(/C=C/c3ccccn3)n[nH]c2c1` [AXT, Axitinib], the Solubility in water result is listed as “poorly soluble in water”.

The record behind these values is patent US12016958B2, “Method for delivering an agent to posterior segment of an eye and uses thereof” (NANO TARGETING & THERAPY BIOPHARMA INC., priority 2021, dated 2024).
